Source: PubChem BioAssay AID1199 (EPA DSSTox, 2008)
Calls of active or inactive are those of the source.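 How the source made its calls: active means a tumour-causing dose and a tumour site recorded for mice in at least one sex group; inconclusive means only government mouse studies exist and were judged inadequate; inactive means mouse studies exist but none gave tumours.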

tested on: mouse carcinogenicity bioassay, TD50 from CPDB; experiment: DSSTox (CPDBAS) Carcinogenic Potency Database Summary Mouse Bioassay Results; conditions: TD50_Mouse_Note: no positive results; TargetSites_Mouse_Female: no positive results
From the text: The Carcinogenic Potency Database (CPDB) is a unique and widely used international resource of the results of over 6500 chronic, long-term animal cancer tests on over 1500 chemical substances. The CPDB provides easy access to the bioassay literature, with qualitative and quantitative analyses of both positive and negative experiments that have been published over the past 50 years in the general literature and by the National Cancer Institute/National Toxicology Program. The CPDB standardizes the diverse literature of cancer bioassays that vary widely in protocol, histopathological examination and nomenclature, and in the published author's choices of what information to provide in their papers. Results are reported in the CPDB for tests in rats, mice, hamsters, dogs, and nonhuman primates, and are based on the most positive result among all experiments for each sex-species. The DSSTox CPDBAS (all species) file incorporates data from the CPDB Summary Tables for the full list of over 1500 chemical substances tested in at least one species. Summary bioassay results for Mouse (TD50, tumor sites, male, female, both sexes) are provided in the CPDB Summary Tables and the DSSTox CPDBAS file for over 1000 chemical substances.
TD50 is a standardized quantitative measure of carcinogenic potency (analogous to an LD50) and is reported in the CPDB Summary Table for each species. Activity Score for actives is computed by mapping of LOG10 (1/TD50_Mouse_mmol) activity values spanning range [MIN, MAX] onto Integer 1-100 Activity Score range, where 100 is highest potency and 1 is lowest: Activity Score = 100 * INTEGER[(log10(1/Activity) - MIN)/(MAX […] MIN)]. If activity is reported but no TD50_Mouse_mmol value is computed, such as for a mixture, the Activity Score is assigned the activity value "50". […] Target sites are reported for each sex-species group with a positive result in the CPDB on the basis of a positive author's opinion for the particular site, using all results from both the general literature and NCI/NTP bioassays. If a chemical has two or more target sites listed, the results may be from different experiments, and a single site may be a target organ in more than one experiment, as well. Blank entry in TargetSites field indicates no results reported.

`CC(=O)OC/C=C(\C)CCC=C(C)C` was tested. Which outcome did it give?
Its outcome is “inactive; no positive results”.

How did the outcome turn out when `Oc1cccc2cccnc12` was run?
The outcome was “inactive; no positive results”.

With `NC(=O)c1cccnc1` as the compound, how does the outcome read?
Its outcome is “inactive; no positive results”.

For `C=C(C)[C@H]1CC=C(C)C(=O)C1`, which outcome is on record?
The outcome was “inactive; no positive results”.

How did the outcome turn out when `O=CCBr` was run?
The outcome was “inactive; no positive results”.

With `CC1=C(/C=C/C(C)=C/C=C/C(C)=C/C(=O)O)C(C)(C)CCC1` as the compound, how does the outcome read?
The outcome was “inactive; no positive results”.

For `CCCCNC(N)=O`, which outcome is on record?
The outcome was “inactive; no positive results”.

How did the outcome turn out when `O=C(O)COc1cc(Cl)c(Cl)cc1Cl` was run?
Its outcome is “inactive; no positive results”.

How did the outcome turn out when `CN(C)c1ccc(N=NS(=O)(=O)O)cc1` was run?
Its outcome is “inactive; no positive results”.

With `CN1[C@@H]2CC(OC(=O)[C@@H](CO)c3ccccc3)C[C@H]1[C@@H]1O[C@@H]12` (stereo not given in full) as the compound, how does the outcome read?
The outcome was “inactive; no positive results”.

How did the outcome turn out when `FCC(F)(F)F` was run?
The outcome was “inactive; no positive results”.

With `Cc1ccc(Cc2cnc(NCCSCc3ccc(CN(C)C)o3)[nH]c2=O)cn1` as the compound, how does the outcome read?
The outcome was “inactive; no positive results”.

How did the outcome turn out when `OC[P+](CO)(CO)CO` was run?
The outcome was “inactive; no positive results”.

Which outcome does the source give for `OCl` here?
The outcome was “inactive; no positive results”.

`CC(=O)NNC(C)=O` was tested. Which outcome did it give?
Its outcome is “inactive; no positive results”.

With `CC1=CC(=O)NS(=O)(=O)O1` as the compound, how does the outcome read?
Its outcome is “inactive; no positive results”.

`Cc1cccc(C)c1` was tested. Which outcome did it give?
Its outcome is “inactive; no positive results”.

With `CCCCCl` as the compound, how does the outcome read?
Its outcome is “inactive; no positive results”.

Which outcome does the source give for `C#C[C@]1(O)CC[C@H]2[C@@H]3CCc4cc(OC)ccc4[C@H]3CC[C@@]21C` here?
The outcome was “inactive; no positive results”.

For `C[N+](C)(C)CCCl`, which outcome is on record?
The outcome was “inactive; no positive results”.

With `CC1CCC(C(C)C)C(O)C1` (stereo not given) as the compound, how does the outcome read?
Its outcome is “inactive; no positive results”.

Which outcome does the source give for `CN(C)C(=S)[S][Pb][S]C(=S)N(C)C` here?
The outcome was “inactive; no positive results”.

How did the outcome turn out when `Oc1cccc(O)c1` was run?
The outcome was “inactive; no positive results”.

How did the outcome turn out when `CCN(Cc1cccc(S(=O)(=O)O)c1)c1ccc(C(=C2C=CC(=[N+](CC)Cc3cccc(S(=O)(=O)[O-])c3)C=C2)c2ccccc2)cc1` was run?
The outcome was “inactive; no positive results”.

With `O=S(=O)([O-])[O-].[O]=[V+2]` as the compound, how does the outcome read?
The outcome was “inactive; no positive results”.

For `S=C([S-])NCCNC(=S)[S-].[Zn+2]`, which outcome is on record?
Its outcome is “inactive; no positive results”.

For `O=NO`, which outcome is on record?
Its outcome is “inactive; no positive results”.

Which outcome does the source give for `NC(=S)NNS(=O)(=O)c1ccccc1` here?
Its outcome is “inactive”.

With `Cc1cc(N=Nc2c(O)ccc3ccccc23)c(S(=O)(=O)O)cc1Cl` as the compound, how does the outcome read?
The outcome was “inactive; no positive results”.

With `c1ccc2sc(SN3CCOCC3)nc2c1` as the compound, how does the outcome read?
Its outcome is “inactive; no positive results”.

How did the outcome turn out when `N[C@@H](CCC(=O)NNc1ccc(CO)cc1)C(=O)O` was run?
The outcome was “inactive; no positive results”.

`N[C@@H](Cc1c[nH]c2ccccc12)C(=O)O` was tested. Which outcome did it give?
The outcome was “inactive; no positive results”.

For `Cc1ccc2c(-c3ccccc3)nc(=O)n(C(C)C)c2c1`, which outcome is on record?
Its outcome is “inactive; no positive results”.

With `CS(=O)(=O)OCCCNCCCOS(C)(=O)=O` as the compound, how does the outcome read?
The outcome was “inactive; no positive results”.

same assay, conditions: TD50_Mouse_Note: only experiment is NCI/NTP bioassay inadequate; TargetSites_Mouse_Female: NTP bioassay inadequate

Which outcome does the source give for `Nc1ccc2cc3ccc(N)cc3nc2c1` here?
Its outcome is “ntp bioassay inadequate”.

same assay, conditions: TD50_Mouse_Note: positive test results only by intraperitoneal or intravenous injection; TD50 is harmonic mean of more than one positive; TargetSites_Mouse_Female: hematopoietic system; lung; nervous system; uterus

Which Potency does the source give for `CNNCc1ccc(C(=O)NC(C)C)cc1` here?
Its Potency is 0.00216 mmol/kg/day.

same assay, conditions: TargetSites_Mouse_Female: hematopoietic system

For `NNc1nc(-c2ccc([N+](=O)[O-])cc2)cs1`, which Potency is on record?
The Potency was 0.0449 mmol/kg/day.

same assay, conditions: TargetSites_Mouse_Female: liver

`CCCCC(CC)COP(=O)(OCC(CC)CCCC)OCC(CC)CCCC` (stereo not given) was tested. Which Potency did it give?
Its Potency is 5.89 mmol/kg/day.

Which Potency does the source give for `CCCCCC` here?
Its Potency is 352 mmol/kg/day.

same assay, conditions: TargetSites_Mouse_Female: liver; ovary

For `O=[N+]([O-])c1ccc2c3c(cccc13)CC2`, which Potency is on record?
The Potency was 0.23 mmol/kg/day.

same assay, conditions: TargetSites_Mouse_Female: lung; vascular system

Which Potency does the source give for `CCCCCNN` here?
The Potency was 0.0423 mmol/kg/day.

same assay, conditions: TargetSites_Mouse_Female: no positive results

With `[O-][Br+2]([O-])O` as the compound, how does the Potency read?
Its Potency is 0.322 mmol/kg/day.

With `CCCCCC(N)=O` as the compound, how does the Potency read?
Its Potency is 16.9 mmol/kg/day.

`O=Nc1ccc(Nc2ccccc2)cc1` was tested. Which Potency did it give?
Its Potency is 1.72 mmol/kg/day.

same assay, conditions: TargetSites_Mouse_Female: ovary

How did the Potency turn out when `C=CC1CC=CCC1` (stereo not given) was run?
Its Potency is 0.98 mmol/kg/day.
